From patent US20170164607A1, “METHODS OF EXTENDING THE SHELF LIFE OF SUGARCANE STEM SECTIONS AND COATED SUGARCANE STEM SECTIONS” (Syngenta Participations AG, priority 2014, published 2017)
Like-named read-outs stand apart in the source and are kept apart here.

How the values were obtained:
[1] = tested on: sugarcane stem sections of CP88-762; conditions: 14 days after planting
Excerpt: Sugarcane stem sections of CP88-762 having a diameter of approximately 25-30 mm and a length of approximately 50 mm were cut and treated with a standard treatment slurry or a standard treatment slurry containing AgNO3 at a final concentration of 600 μMol of AgNO3 as described in Example 3. The AgNO3 treated and control (without AgNO3) sugarcane stem sections were then planted as is or stored for an extended period of time up to 42 days in storage containers as shown at FIG. 1 (i.e., storage containers that allow gas transfer between an interior and so exterior of the storage container) at a storage temperature of 10° C. Following storage, the AgNO3 treated and control sugarcane stem sections were planted in trays of potting soil and placed in a greenhouse as described in example 3. All sugarcane stem sections were evaluated for germination and shoot growth at 14 days after planting.

[2] = tested on: sugarcane stem sections; conditions: 300, 600 and 1200 μMol AgNO3; storage up to three weeks in air-tight jars at 16° C.; biochamber boxes or potted soil trays; FIGS. 2-7
Excerpt: Sugarcane stem sections (i.e., two varieties: CP 88-1762 and CP00-1101) having a diameter of approximately 25-30 mm and a length of approximately 50 mm were cut and coated (or left uncoated) as described in Example 1 using coating compositions having AgNO3 concentrations of 0, 300, 600 and 1200 μMol of AgNO3. The coated and control uncoated sugarcane stem sections were then planted as is or stored for a period of time up to three weeks in one gallon air-tight jars (i.e., about 20 coated sugarcane stem sections per jar) at 16° C. Following storage, the coated and control uncoated sugarcane stem sections were then germinated in either biochamber boxes or potted soil trays (i.e., 5 jars each) or both. All coated and control uncoated sugarcane stem sections were planted and evaluated as follows: germination rates were taken in the biochamber boxes at 3, 5, and 7 days after removal from the jars: germination rates were taken in the potted trays at 10, 12, and 14 days after removal from the jars.

[3] = tested on: sugarcane stem sections of CP88-1762
Excerpt: Sugarcane stem sections of CP88-1762 having a diameter of approximately 25-30 mm and a length or approximately 50 mm were coated with a standard treatment slurry (designated control treatment) or treated with the standard treatment slurry which also contained AgNO3 at a concentration of 600 μMol of AgNO3 (designated as AgNO3 treatment). The AgNO3 treated and control sugarcane stem sections were then planted as is or stored for a period of time up to three weeks in storage containers as shown in FIG. 1 (i.e., storage containers that allow gas transfer between an interior and an exterior of the storage container) at storage temperatures ranging from 10° C. to 22° C. Following storage, the AgNO3 treated and control sugarcane stem sections were planted in trays of potting soil and placed in a greenhouse. The trays were watered daily to maintain moisture and the greenhouse maintained at 26/20 C maximum/minimum temperatures with 15 hours light. Growth and germination of all AgNO3 treated and control sugarcane stem sections were evaluated at 7, 14, and 21 days after removal from storage containers.

[4] = tested on: sugarcane stem sections; conditions: for Avg. Germ / Avg. Height: evaluated seven days after planting
Experimental: Sugarcane stem sections having a diameter of approximately […] and a length of approximately 50 mm were generated (e.g., cut) from sugarcane stalks. One set of cut sugarcane stem section were dipped into the coating compositions for a dwell time of about 60 seconds, and subsequently allowed to dry at room temperature (i.e., about 30° C. Another set of control sugarcane stem sections were not coated and remained at room temperature (i.e., about 30° C.) (i.e., identified below as “No AgNO3”). The coated and control uncoated sugarcane stem sections were then planted as is (i.e., these stem sections are identified below as “Day Zero”) or stored for a period of time up to three weeks in an air tight jar at room temperature (i.e., about 30° C.). Following storage, the coated and control uncoated sugarcane stem sections were then germinated in biochamber boxes. All coated and control uncoated sugarcane stem sections were germinated in a growth chamber and evaluated seven days after planting.

[5] = 600 μMol AgNO3 in standard treatment slurry, storage up to three weeks at 10° C. to 22° C. in gas-permeable containers, FIGS. 8-9
[6] = 200 μMol AgNO3, 2 weeks storage in air tight jar at about 30° C.
[7] = 200 μMol AgNO3, 3 weeks storage in air tight jar at about 30° C.
[8] = 400 μMol AgNO3, 2 weeks storage in air tight jar at about 30° C.
[9] = 400 μMol AgNO3, 3 weeks storage in air tight jar at about 30° C.
[10] = 600 μMol AgNO3, 2 weeks storage in air tight jar at about 30° C.
[11] = 600 μMol AgNO3, 3 weeks storage in air tight jar at about 30° C.
[12] = after a weeks of storage in an air-tight jar (3 weeks rows of Table 1)

## O=[N+]([O-])[O-].[Ag+] [AgNO3, silver nitrate]
[1]; 600 μMol AgNO3, after 6 weeks storage at 10° C., FIG. 11
  germination rate: 68%
[1]; 600 μMol AgNO3 in standard treatment slurry, throughout the 42 days of storage at 10° C., FIG. 11
  germination rates compared to control sugarcane stem sections: improved germination rates
[1]; 600 μMol AgNO3 in standard treatment slurry, throughout the 42 days of storage at 10° C., FIG. 12
  plant vitality (as measured by plant height) compared to control sugarcane stem sections: improved
[2]
  germination rates compared to the standard slurry applied sugarcane stem sections: improved germination rates
[3]; 600 μMol AgNO3, 7 through 21 days storage
  stem section germination: significant enhancement
[3]; 600 μMol AgNO3, all storage periods including day 0 planting
  shoot lengths: significant enhancement
[3]; 600 μMol AgNO3, stored for 14 days at 22° C., 28 days after planting, FIG. 10
  vitality of sugarcane plants compared to plants from control stem sections: much more vitality
[3]; [5]
  germination rates compared to control sugarcane stem sections: improved germination rates
  plant vitality (as measured by plant height) compared to control sugarcane stem sections: improved
[4]; 200 μmol concentration, 2 weeks of storage in an air-tight jar
  germination compared to the control "no AgNO3" sample: increased germination
[4]; [6]
  Avg. Germ: 83.33%
  Avg. Height: 51.38 mm
[4]; [7]
  Avg. Germ: 52.50%
  Avg. Height: 42.91 mm
[4]; [8]
  Avg. Germ: 52.38%
  Avg. Height: 39.66 mm
[4]; [9]
  Avg. Germ: 45.00%
  Avg. Height: 30.53 mm
[4]; [10]
  Avg. Germ: 61.90%
  Avg. Height: 40.79 mm
[4]; [11]
  Avg. Germ: 87.50%
  Avg. Height: 55.19 mm
[4]; [12]
  germination over the control "non-AgNO3" samples: improved germination
  plant height over the control "non-AgNO3" samples: improved
